Experimental data from patent publication US20230021483A1, “[…] […] METHOD AND CLASSIFICATION OF PHARMACEUTICAL COMPONENTS BY USING TRANSCRIPTOMES” (National Institutes of Biomedical Innovation, Health and …, priority 2016, published 2023).

System: adjuvant-associated biological themes in LV, SP, LN
Details: LV, ID
In short: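 Per-mouse whole-organ transcriptomes; genes with eij/ei(c)>2.0 tested for theme enrichment via TargetMine (GO, KEGG, Reactome, others), Fisher's exact test, Holm-Bonferroni correction. Themes shared by all three mice kept at p<0.05, using the smallest p. Score per adjuvant-associated term = Σ−log(p) of matching themes.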

## Poly_IC
  IFN alpha, GO annotation line 1 of 5: 13.3
  IFN alpha, GO annotation line 2 of 5: 4.7
  IFN alpha: cellular response to interferon-alpha: 4.95
  IFN alpha: positive regulation of interferon-alpha production: 5.95
  IFN alpha: regulation of interferon-alpha production: 5.3
  IFN beta: cellular response to interferon-beta: 17.2
  IFN beta: interferon-beta production: 9.35
  IFN beta: positive regulation of interferon-beta production: 8.94
  IFN beta: regulation of interferon-beta production: 7.54
  IFN beta: response to interferon-beta: 23
  IFN gamma: cellular response to interferon-gamma: 10.5
  IFN gamma: interferon-gamma production: 5.43
  IFN gamma: regulation of interferon-gamma production: 5.32
  IFN gamma: response to interferon-gamma: 22.3
  NF-kappa B signaling pathway, GO annotation line 1 of 4: 18
  NF-kappa B signaling pathway, GO annotation line 2 of 4: 13.5
  NF-kappa B signaling pathway, GO annotation line 3 of 4: 8.57
  NF-kappa B signaling pathway, GO annotation line 4 of 4: 9.04
  TNF signaling pathway: 22.1
  adaptive immune response, GO annotation line 1 of 5: 11.9
  adaptive immune response, GO annotation line 2 of 5: 13
  adaptive immune response, GO annotation line 3 of 5: 7.16
  adaptive immune response, GO annotation line 4 of 5: 6.84
  adaptive immune response, GO annotation line 5 of 5: 0
  apoptosis, GO annotation line 1 of 8: 15.7
  apoptosis, GO annotation line 2 of 8: 14.8
  apoptosis, GO annotation line 3 of 8: 12.4
  apoptosis, GO annotation line 4 of 8: 7.32
  apoptosis, GO annotation line 5 of 8: 3.59
  apoptosis, GO annotation line 6 of 8: 7.04
  apoptosis, GO annotation line 7 of 8: 4.79
  apoptosis, GO annotation line 8 of 8: 0
  cell death, GO annotation line 1 of 9: 22.6
  cell death, GO annotation line 2 of 9: 17.8
  cell death, GO annotation line 3 of 9: 18.1
  cell death, GO annotation line 4 of 9: 15.4
  cell death, GO annotation line 5 of 9: 15.6
  cell death, GO annotation line 6 of 9: 4.25
  cell death, GO annotation line 7 of 9: 3.46
  cell death, GO annotation line 8 of 9: 4.38
  cell death, GO annotation line 9 of 9: 4.89
  chemokine, GO annotation line 1 of 4: 6.25
  chemokine, GO annotation line 2 of 4: 7.84
  chemokine, GO annotation line 3 of 4: 9.13
  chemokine, GO annotation line 4 of 4: 9
  chemotaxis, GO annotation line 1 of 11: 20.7
  chemotaxis, GO annotation line 2 of 11: 6.87
  chemotaxis, GO annotation line 3 of 11: 22
  chemotaxis, GO annotation line 4 of 11: 13.1
  chemotaxis, GO annotation line 5 of 11: 6.8
  chemotaxis, GO annotation line 6 of 11: 7.42
  chemotaxis, GO annotation line 7 of 11: 7.6
  chemotaxis, GO annotation line 8 of 11: 8.31
  chemotaxis, GO annotation line 9 of 11: 9.92
  chemotaxis, GO annotation line 10 of 11: 6.5
  chemotaxis, GO annotation line 11 of 11: 3.15
  cytokine, GO annotation line 1 of 17: 66.1
  cytokine, GO annotation line 2 of 17: 48.5
  cytokine, GO annotation line 3 of 17: 42.3
  cytokine, GO annotation line 4 of 17: 12.1
  cytokine, GO annotation line 5 of 17: 45.6
  cytokine, GO annotation line 6 of 17: 43.5
  cytokine, GO annotation line 7 of 17: 20.9
  cytokine, GO annotation line 8 of 17: 7.3
  cytokine, GO annotation line 9 of 17: 8.4
  cytokine, GO annotation line 10 of 17: 34.3
  cytokine, GO annotation line 11 of 17: 12.6
  cytokine, GO annotation line 12 of 17: 4.18
  cytokine, GO annotation line 13 of 17: 15
  cytokine, GO annotation line 14 of 17: 14.5
  cytokine, GO annotation line 15 of 17: 3.4
  cytokine, GO annotation line 16 of 17: 3.66
  cytokine, GO annotation line 17 of 17: 5.29
  defense response, GO annotation line 1 of 11: 90.6
  defense response, GO annotation line 2 of 11: 57.5
  defense response, GO annotation line 3 of 11: 41.3
  defense response, GO annotation line 4 of 11: 48.9
  defense response, GO annotation line 5 of 11: 15.8
  defense response, GO annotation line 6 of 11: 6.93
  defense response, GO annotation line 7 of 11: 4.67
  defense response, GO annotation line 8 of 11: 25.8
  defense response, GO annotation line 9 of 11: 6.75
  defense response, GO annotation line 10 of 11: 4.62
  defense response, GO annotation line 11 of 11: 0
  immune response, GO annotation line 1 of 8: 79.8
  immune response, GO annotation line 2 of 8: 35.5
  immune response, GO annotation line 3 of 8: 39.5
  immune response, GO annotation line 4 of 8: 23.2
  immune response, GO annotation line 5 of 8: 20.5
  immune response, GO annotation line 6 of 8: 23.7
  immune response, GO annotation line 7 of 8: 3.8
  immune response, GO annotation line 8 of 8: 4.58
  inflammatory response, GO annotation line 1 of 5: 32.2
  inflammatory response, GO annotation line 2 of 5: 14.4
  inflammatory response, GO annotation line 3 of 5: 5.99
  inflammatory response, GO annotation line 4 of 5: 0
  inflammatory response, GO annotation line 5 of 5: 0
  innate immune response, GO annotation line 1 of 6: 59.5
  innate immune response, GO annotation line 2 of 6: 40.7
  innate immune response, GO annotation line 3 of 6: 27.7
  innate immune response, GO annotation line 4 of 6: 23.3
  innate immune response, GO annotation line 5 of 6: 18.5
  innate immune response, GO annotation line 6 of 6: 7.74
  interleukin-6: interleukin-6 production: 9.62
  interleukin-6: positive regulation of interleukin-6 production: 5.06
  interleukin-6: regulation of interleukin-6 production: 10.2
  interleukin-12: interleukin-12 production: 6.82
  interleukin-12: positive regulation of interleukin-12 production: 4.28
  interleukin-12: regulation of interleukin-12 production: 7.39
  migration, GO annotation line 1 of 10: 22.1
  migration, GO annotation line 2 of 10: 6.99
  migration, GO annotation line 3 of 10: 23.4
  migration, GO annotation line 4 of 10: 18.5
  migration, GO annotation line 5 of 10: 9
  migration, GO annotation line 6 of 10: 9.34
  migration, GO annotation line 7 of 10: 8.14
  migration, GO annotation line 8 of 10: 7.59
  migration, GO annotation line 9 of 10: 6.05
  migration, GO annotation line 10 of 10: 3.46
  stress, GO annotation line 1 of 3: 58.8
  stress, GO annotation line 2 of 3: 40.8
  stress, GO annotation line 3 of 3: 5.39
  wounding, GO annotation line 1 of 3: 16.7
  wounding, GO annotation line 2 of 3: 14.8
  wounding, GO annotation line 3 of 3: 9.8
